From ChEMBL document CHEMBL5291721, “A preclinical secondary pharmacology resource illuminates target-adverse drug reaction associations of marketed drugs” (Nat Commun, 2023) come the findings set out here.

Structures are written as SMILES.

Broadly, the AC50 is the concentration at which the activity in the assay is half-maximal. A lower AC50 goes with greater potency.

The target in test [1] is Neurotensin receptor type 1 (Homo sapiens, UniProt P30989).
For test [2], the target named is T1, Gastric inhibitory polypeptide receptor (Homo sapiens, UniProt P48546).
T1 sequence (P48546 whole entry): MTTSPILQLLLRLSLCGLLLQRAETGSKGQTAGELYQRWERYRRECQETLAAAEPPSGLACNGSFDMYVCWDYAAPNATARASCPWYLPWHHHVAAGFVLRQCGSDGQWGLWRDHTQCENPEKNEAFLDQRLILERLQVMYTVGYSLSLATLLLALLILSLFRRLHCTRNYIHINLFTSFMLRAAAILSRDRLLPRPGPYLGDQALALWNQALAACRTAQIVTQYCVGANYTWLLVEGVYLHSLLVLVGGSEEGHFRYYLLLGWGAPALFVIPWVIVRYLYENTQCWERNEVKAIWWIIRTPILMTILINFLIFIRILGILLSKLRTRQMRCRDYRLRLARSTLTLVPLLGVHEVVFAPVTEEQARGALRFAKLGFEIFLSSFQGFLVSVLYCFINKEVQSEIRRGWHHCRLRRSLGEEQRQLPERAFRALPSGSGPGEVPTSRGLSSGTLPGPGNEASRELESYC

Test [3] addresses T2, Muscarinic acetylcholine receptor M2 (Homo sapiens, UniProt P08172).
T2 sequence (P08172 whole entry): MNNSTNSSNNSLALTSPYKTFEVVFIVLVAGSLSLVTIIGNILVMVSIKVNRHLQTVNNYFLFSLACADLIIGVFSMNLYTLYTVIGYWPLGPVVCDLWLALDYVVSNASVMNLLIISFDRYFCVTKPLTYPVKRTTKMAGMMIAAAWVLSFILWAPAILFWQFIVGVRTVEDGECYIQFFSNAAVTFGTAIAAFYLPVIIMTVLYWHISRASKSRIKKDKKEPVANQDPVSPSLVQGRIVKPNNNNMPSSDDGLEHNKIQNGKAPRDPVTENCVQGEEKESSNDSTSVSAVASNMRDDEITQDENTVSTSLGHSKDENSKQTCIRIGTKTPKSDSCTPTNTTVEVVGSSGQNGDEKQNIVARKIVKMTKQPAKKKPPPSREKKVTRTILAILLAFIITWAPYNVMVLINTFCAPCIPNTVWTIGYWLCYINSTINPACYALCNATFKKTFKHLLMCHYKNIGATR

Test [4] concerns the target T3, Corticotropin-releasing factor receptor 1 (Homo sapiens, UniProt P34998).
T3 sequence (P34998 whole entry): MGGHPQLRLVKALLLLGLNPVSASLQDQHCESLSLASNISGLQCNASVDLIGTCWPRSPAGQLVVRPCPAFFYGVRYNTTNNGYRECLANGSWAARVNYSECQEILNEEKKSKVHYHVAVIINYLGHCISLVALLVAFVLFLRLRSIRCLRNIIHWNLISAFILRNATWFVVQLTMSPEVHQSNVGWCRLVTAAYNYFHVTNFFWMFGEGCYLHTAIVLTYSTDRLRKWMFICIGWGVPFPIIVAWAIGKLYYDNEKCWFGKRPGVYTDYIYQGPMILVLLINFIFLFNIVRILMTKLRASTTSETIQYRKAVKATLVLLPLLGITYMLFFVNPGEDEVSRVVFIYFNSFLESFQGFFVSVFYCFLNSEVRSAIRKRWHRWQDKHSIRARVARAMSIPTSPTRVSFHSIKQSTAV

The target in test [5] is T4, Gamma-aminobutyric acid receptor subunit alpha-1/alpha-2/beta-2/gamma-2 (Homo sapiens, UniProt P14867+P18507+P47869+P47870). Type of test: functional, cell-based.
For test [6], the target named is Beta-3 adrenergic receptor (Homo sapiens, UniProt P13945).
The next test addresses Histamine H2 receptor (Homo sapiens, UniProt P25021).
Test [7] deals with T4, Gamma-aminobutyric acid receptor subunit alpha-1/alpha-2/beta-2/gamma-2. The format is functional, cell-based. The source holds these as a separate data set.
Test [8] deals with Muscarinic acetylcholine receptor M3 (Homo sapiens, UniProt P20309).
Another test deals with Mu-type opioid receptor (Homo sapiens, UniProt P35372). The experiment in a line: biochemical. Type of test: functional.
The target of test [9] is T5, Alpha-2B adrenergic receptor (Homo sapiens, UniProt P18089).
T5 sequence (P18089 whole entry): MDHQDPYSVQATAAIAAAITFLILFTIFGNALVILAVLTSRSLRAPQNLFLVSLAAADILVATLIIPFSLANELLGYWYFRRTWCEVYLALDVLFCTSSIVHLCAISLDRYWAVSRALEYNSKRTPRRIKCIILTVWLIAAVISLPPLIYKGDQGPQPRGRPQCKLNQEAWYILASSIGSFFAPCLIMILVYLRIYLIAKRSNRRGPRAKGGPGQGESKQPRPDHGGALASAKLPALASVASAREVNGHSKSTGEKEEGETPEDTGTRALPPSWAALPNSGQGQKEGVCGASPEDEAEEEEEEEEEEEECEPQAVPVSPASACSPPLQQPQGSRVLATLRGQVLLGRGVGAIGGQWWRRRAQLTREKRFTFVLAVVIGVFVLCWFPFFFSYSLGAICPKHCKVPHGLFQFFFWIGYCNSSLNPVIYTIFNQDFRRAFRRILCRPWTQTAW

The next test concerns the target T6, Adenosine receptor A1 (Homo sapiens, UniProt P30542).
T6 sequence (P30542 whole entry): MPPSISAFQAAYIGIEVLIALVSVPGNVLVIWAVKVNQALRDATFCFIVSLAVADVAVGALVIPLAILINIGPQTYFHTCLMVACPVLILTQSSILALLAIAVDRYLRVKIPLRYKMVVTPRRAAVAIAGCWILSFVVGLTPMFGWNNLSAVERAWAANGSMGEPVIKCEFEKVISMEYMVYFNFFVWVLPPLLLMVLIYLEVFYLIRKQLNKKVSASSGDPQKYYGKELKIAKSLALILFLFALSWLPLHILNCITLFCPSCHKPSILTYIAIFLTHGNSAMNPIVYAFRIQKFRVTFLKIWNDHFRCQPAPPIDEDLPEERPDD
Also: assay procedure not described here.

Sequence of Neurotensin receptor type 1 (P30989 whole entry): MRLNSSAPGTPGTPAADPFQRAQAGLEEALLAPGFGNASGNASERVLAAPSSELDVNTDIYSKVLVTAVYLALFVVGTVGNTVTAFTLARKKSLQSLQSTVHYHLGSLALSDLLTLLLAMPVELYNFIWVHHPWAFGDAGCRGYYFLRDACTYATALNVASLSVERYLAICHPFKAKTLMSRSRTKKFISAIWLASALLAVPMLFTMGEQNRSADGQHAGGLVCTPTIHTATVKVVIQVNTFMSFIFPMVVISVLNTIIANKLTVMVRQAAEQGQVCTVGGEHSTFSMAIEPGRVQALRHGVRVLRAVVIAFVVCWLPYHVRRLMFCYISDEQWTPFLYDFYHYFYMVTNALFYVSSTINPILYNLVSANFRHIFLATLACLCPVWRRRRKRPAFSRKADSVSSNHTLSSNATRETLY
Sequence of Beta-3 adrenergic receptor (P13945 whole entry): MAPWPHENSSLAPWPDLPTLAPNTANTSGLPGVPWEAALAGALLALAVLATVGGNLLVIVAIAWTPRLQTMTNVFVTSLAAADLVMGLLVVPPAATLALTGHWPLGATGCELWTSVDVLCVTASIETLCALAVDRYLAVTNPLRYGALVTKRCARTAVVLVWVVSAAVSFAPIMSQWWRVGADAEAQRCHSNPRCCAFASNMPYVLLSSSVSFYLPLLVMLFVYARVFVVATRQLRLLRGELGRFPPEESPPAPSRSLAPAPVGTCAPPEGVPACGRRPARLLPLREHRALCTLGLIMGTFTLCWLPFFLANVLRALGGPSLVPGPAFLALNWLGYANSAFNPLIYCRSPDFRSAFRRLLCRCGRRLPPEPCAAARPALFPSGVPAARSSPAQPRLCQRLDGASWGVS
T4 sequence (P14867 whole entry): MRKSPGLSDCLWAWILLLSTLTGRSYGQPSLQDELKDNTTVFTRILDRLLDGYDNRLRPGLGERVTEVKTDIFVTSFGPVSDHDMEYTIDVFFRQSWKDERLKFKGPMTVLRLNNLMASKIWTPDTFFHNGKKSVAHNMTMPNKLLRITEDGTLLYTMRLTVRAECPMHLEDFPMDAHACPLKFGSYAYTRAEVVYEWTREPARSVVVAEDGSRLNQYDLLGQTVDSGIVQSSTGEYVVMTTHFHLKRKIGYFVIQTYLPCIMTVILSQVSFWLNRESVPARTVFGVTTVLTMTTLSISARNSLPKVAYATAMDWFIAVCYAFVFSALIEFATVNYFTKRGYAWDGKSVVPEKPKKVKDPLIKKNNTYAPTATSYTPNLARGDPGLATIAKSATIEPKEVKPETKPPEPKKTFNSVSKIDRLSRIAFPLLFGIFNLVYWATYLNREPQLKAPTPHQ
T4 sequence (P47870 whole entry): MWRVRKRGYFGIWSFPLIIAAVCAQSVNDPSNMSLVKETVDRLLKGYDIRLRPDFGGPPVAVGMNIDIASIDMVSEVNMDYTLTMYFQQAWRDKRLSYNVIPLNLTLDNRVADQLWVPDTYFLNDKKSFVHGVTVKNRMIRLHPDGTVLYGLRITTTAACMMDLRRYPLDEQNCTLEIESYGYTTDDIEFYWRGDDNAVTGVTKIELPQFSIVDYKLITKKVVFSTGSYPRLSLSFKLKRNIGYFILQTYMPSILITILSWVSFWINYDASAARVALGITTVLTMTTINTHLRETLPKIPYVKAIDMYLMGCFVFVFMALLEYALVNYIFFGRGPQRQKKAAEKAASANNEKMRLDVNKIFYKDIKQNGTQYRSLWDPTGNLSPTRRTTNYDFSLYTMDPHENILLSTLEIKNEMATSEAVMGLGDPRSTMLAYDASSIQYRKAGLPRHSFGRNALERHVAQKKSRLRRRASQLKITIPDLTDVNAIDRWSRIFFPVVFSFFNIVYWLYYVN
T4 sequence (P18507 whole entry): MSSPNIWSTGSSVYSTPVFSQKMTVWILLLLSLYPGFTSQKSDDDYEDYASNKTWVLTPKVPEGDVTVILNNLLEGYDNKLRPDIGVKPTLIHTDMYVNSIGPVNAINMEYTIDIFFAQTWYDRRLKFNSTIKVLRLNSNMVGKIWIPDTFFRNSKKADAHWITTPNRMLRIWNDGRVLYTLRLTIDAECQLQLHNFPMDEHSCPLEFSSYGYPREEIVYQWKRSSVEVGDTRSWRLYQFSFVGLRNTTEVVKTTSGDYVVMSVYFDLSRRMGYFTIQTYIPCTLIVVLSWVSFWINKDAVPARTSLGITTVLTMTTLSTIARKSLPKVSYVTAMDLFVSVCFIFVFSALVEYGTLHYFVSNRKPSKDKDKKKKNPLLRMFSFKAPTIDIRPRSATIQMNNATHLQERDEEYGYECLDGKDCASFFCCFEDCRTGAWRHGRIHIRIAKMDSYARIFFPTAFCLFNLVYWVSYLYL
T4 sequence (P47869 whole entry): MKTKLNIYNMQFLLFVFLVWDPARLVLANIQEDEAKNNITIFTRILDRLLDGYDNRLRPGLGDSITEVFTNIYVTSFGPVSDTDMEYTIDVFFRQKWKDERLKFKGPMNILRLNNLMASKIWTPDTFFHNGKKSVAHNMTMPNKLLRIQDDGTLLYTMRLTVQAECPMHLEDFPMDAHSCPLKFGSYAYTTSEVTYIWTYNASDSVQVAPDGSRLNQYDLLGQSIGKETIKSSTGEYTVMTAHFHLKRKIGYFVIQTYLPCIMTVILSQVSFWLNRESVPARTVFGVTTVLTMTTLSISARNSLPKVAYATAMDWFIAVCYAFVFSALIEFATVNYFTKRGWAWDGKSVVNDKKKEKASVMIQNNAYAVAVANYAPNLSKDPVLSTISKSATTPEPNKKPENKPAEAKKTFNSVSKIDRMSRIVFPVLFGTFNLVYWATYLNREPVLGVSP
Sequence of Muscarinic acetylcholine receptor M3 (P20309 whole entry): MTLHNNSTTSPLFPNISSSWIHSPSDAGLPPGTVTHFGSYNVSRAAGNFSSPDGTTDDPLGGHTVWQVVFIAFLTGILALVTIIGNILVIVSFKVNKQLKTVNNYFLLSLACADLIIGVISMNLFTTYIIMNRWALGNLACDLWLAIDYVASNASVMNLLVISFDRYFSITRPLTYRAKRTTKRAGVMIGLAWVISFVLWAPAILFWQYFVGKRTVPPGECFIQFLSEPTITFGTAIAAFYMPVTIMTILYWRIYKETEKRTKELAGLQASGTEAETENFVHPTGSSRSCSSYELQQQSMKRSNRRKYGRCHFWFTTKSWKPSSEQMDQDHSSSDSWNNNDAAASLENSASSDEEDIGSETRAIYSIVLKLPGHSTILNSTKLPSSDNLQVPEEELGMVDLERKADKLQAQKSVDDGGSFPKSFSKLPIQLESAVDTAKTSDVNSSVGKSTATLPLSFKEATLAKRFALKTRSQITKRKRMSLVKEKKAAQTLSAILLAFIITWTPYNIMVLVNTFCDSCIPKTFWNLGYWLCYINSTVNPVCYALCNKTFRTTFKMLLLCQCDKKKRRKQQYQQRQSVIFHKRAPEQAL
Sequence of Mu-type opioid receptor (P35372 whole entry): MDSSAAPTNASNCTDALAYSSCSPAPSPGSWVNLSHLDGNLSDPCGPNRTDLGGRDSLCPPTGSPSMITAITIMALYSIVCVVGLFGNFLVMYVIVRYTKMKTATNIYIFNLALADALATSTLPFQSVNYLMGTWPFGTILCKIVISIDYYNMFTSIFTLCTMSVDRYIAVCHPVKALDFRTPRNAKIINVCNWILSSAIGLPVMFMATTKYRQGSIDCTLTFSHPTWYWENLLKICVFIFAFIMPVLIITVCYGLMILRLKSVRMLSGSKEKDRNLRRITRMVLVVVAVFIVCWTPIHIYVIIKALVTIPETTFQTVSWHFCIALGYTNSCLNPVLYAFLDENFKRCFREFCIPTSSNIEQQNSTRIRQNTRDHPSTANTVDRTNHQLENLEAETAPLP
Sequence of Histamine H2 receptor (P25021 whole entry): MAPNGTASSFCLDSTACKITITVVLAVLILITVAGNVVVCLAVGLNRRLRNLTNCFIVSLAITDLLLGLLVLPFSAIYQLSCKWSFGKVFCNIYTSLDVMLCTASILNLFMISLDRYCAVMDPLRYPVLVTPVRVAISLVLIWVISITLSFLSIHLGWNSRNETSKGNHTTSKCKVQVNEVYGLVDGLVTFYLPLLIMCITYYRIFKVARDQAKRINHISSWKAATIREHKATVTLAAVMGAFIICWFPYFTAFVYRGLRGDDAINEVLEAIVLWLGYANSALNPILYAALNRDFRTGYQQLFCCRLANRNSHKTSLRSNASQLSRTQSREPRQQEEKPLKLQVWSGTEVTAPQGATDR

`CCOc1nc2cccc(C(=O)O)c2n1Cc1ccc(-c2ccccc2-c2nnn[nH]2)cc1`: the AC50 in test [1] is over 30 µM; in [2], over 30 µM; in test [3] it was over 10 µM; in test [4], over 30 µM; in test [5] it was over 30 µM; in test [6], over 30 µM. Further, the values for the AC50 (at Histamine H2 receptor; in test [7]) were over 10 µM and over 30 µM, respectively.

On to `CCCc1nc2c(C)cc(-c3nc4ccccc4n3C)cc2n1Cc1ccc(-c2ccccc2C(=O)O)cc1`, for which the half-maximal activity concentration (AC50) is over 30 µM in test [1]; over 30 µM in test [2]; over 30 µM in test [8]; over 10 µM in test [3]; over 30 µM in test [4]; over 30 µM in [5]. Besides, the AC50 in [6] is over 30 µM; at Histamine H2 receptor it was over 10 µM; in [7], over 30 µM; on Mu-type opioid receptor, 3.7 µM; in test [9], over 30 µM.

Turning to `Nc1c(CC(=O)O)cccc1C(=O)c1ccc(Br)cc1` [BROMFENAC], on Adenosine receptor A1, the activity was half-maximal at 23.6 µM (AC50).

For the molecule `CC(C)NC(=N)NC(=N)Nc1ccc(Cl)c(Cl)c1` [CHLORPROGUANIL], the AC50 in [8] is over 30 µM; at Adenosine receptor A1, over 30 µM; in test [5], over 30 µM; in test [7], over 30 µM; at Mu-type opioid receptor, over 30 µM; in test [9], 10 µM.

For the molecule `C[N+](C)(C)CCOP(=O)(O)OP(=O)([O-])OC[C@H]1O[C@@H](n2ccc(N)nc2=O)[C@H](O)[C@@H]1O` [CITICOLINE], the AC50 (in [8]; at Adenosine receptor A1; in test [5]; in test [7]; at Mu-type opioid receptor; in test [9]) was over 30 µM throughout.

On Adenosine receptor A1, `CN[C@@H]1[C@H](O[C@H]2[C@H](O[C@H]3[C@H](O)[C@@H](O)[C@H](NC(=N)N)[C@@H](O)[C@@H]3NC(=N)N)O[C@@H](C)[C@]2(O)CO)O[C@@H](CO)[C@H](O)[C@H]1O` [DIHYDROSTREPTOMYCIN] registered an AC50 of over 30 µM.

On to `CC[C@H]1OC(=O)[C@H](C)[C@@H](O[C@H]2C[C@@](C)(OC)[C@@H](O)[C@H](C)O2)[C@H](C)[C@@H](O[C@@H]2O[C@H](C)C[C@H](N(C)C)[C@H]2O)[C@](C)(O)C[C@@H](C)[C@@H]2N[C@@H](COCCOC)O[C@H]([C@H]2C)[C@]1(C)O` [DIRITHROMYCIN], for which, at Adenosine receptor A1, the AC50 is over 30 µM.

On Adenosine receptor A1, `C#C[C@]1(O)C=C[C@H]2[C@@H]3CCC4=CC(=O)CC[C@@H]4[C@H]3CC[C@@]21CC` [GESTODENE] yielded an AC50 of over 30 µM.

The molecule `COc1ccccc1OC1(C)OC(=O)c2ccccc2O1` (centres undefined) [GUAIMESAL] showed a half-maximal activity concentration (AC50) on Adenosine receptor A1 of over 30 µM.

As to `C[N+](C)(CCCCCC[N+](C)(C)C1c2ccccc2-c2ccccc21)C1c2ccccc2-c2ccccc21` [HEXAFLUORENIUM], at Adenosine receptor A1, the concentration at half-maximal activity (AC50) was over 30 µM.

On to `COc1cc(C(C)=O)ccc1OCCCN1CCC(c2noc3cc(F)ccc23)CC1` [ILOPERIDONE], for which the half-maximal activity concentration (AC50) was over 30 µM in [8]; over 30 µM at Adenosine receptor A1; over 30 µM in test [5]; over 30 µM in test [7]; 0.105 µM in test [9].

As for `CC(CN1c2ccccc2Sc2ccccc21)N(C)C` (centres undefined) [PROMETHAZINE], the half-maximal activity concentration (AC50) in [1] is over 30 µM; in test [2], over 30 µM; in test [3], 0.161 µM; in test [4], over 30 µM; at Adenosine receptor A1 it was over 30 µM; in test [6] it was over 30 µM. The same molecule yielded a concentration at half-maximal activity (AC50) on Histamine H2 receptor of 0.0536 µM.

In the case of `CC(C)C[C@H](NC(=O)[C@@H](O)[C@H](N)Cc1ccccc1)C(=O)O` [UBENIMEX], the AC50 on Adenosine receptor A1 and at Mu-type opioid receptor was over 30 µM each time.

Take `O=C1Cc2cc(CCN3CCN(c4nsc5ccccc45)CC3)c(Cl)cc2N1` [ZIPRASIDONE]: the AC50 in test [1] is over 30 µM; in [2], over 30 µM; in test [8] it was over 10 µM; in test [3] it was over 10 µM; in [4] it was over 30 µM; at Adenosine receptor A1, over 30 µM. For the same molecule, the AC50 in test [6] is over 30 µM; at Histamine H2 receptor it was 0.596 µM.
